In test [1] the test system is PfCRT variant D313A. Kind of test: CQ uptake assay, oocytes expressing D313A. In kind it is cell-based, Plasmodium falciparum. Here is the method: (§1) Site-directed mutagenesis of PfCRT^Dd2 was performed as described using the megaprimer method with overlap extension[21],[54]. The primer pairs used are listed in Supplementary Table 6. Please note that a codon-optimized and oocyte-adapted version of PfCRT^Dd2 was used[22] (Supplementary Fig. 16). The resulting DNA fragment was cloned into the SP64T expression vector and verified by sequencing.
(§2) Oocytes were obtained as described previously. Briefly, adult (>2 years old) female X. laevis frogs (NASCO) were anesthetized in a cooled solution of ethyl 3-amino benzoate methanesulfonate (0.1%, w/v), followed by a surgical removal of parts of the ovary. The ovary lobes were carefully dissected and small pieces of oocytes were incubated in Ca^2+-free ND96 buffer (96 mM NaCl, 2 mM KCl, 1 mM MgCl2 buffered with 5 mM HEPES/NaOH, pH 7.5) supplemented with collagenase D (0.1%, w/v; Roche), BSA (0.5%, w/v), and 9 mm Na2HPO4 at 18 °C for 14-16 h while gentle shaking. After incubation, the oocytes were carefully washed several times with ND96 buffer (96 mM NaCl, 2 mM KCl, 1.8 mM CaCl2, 1 mM MgCl2 buffered with 5 mM HEPES/NaOH, pH 7.5) supplemented with 100 mg l^−1 gentamycin). Defolliculated and healthy-looking stage V-VI oocytes were manually selected for RNA microinjection. The RNA was generated as following: The codon-optimized sequences of PfCRT variants were cloned into the pSP64T expression vector. After vector linearization using the restriction endonucleases BamHI or SalI (New England Biolabs), transcription was performed using the in vitro SP6 mMessage mMachine Kit (Ambion)[34]. The obtained RNA was kept at −80 °C and diluted with nuclease-free water to a concentration of 0.6 μg μl^−1. Precision-bore glass capillary tubes (3.5-inch glass capillaries; Drummond Scientific Co.) were pulled on a vertical puller (P-87 Flaming/Brown micropipette puller, Sutter Instrument Co.), graduated, and placed on a microinjector (Nanoject II Auto-Nanoliter Injector, Drummond Scientific Co.). 50 nl of nuclease-free water alone (control oocytes) or 50 nl of 0.6 μg μl^−1 RNA were injected under stereomicroscopic control. Injected oocytes were incubated for 46–72 h at 18 °C with twice-daily buffer changes before usage in experiments.
Drug uptake assays were performed as described previously[21],[22],[24],[34]. […] The direction of radio-labeled drug transport is here from the mostly acidic extracellular solution (pH 4.5 or 6.0, as indicated) into the oocyte cytosol (pH ∼ 7.2), which corresponds to the efflux of drug from the acidic digestive vacuole (pH 5.2) into the parasite cytoplasm (pH 7.2). The topology of PfCRT in the oolemma is such that both the N- and C-terminus face the extracellular milieu[3],[22]. In the parasite, the N- and C-terminus face the lumen of the digestive vacuole. CQ uptake kinetics were performed by incubating oocytes in ND96 buffer adjusted to a pH of 4.5, 5.0, 5.5, or 6.0 and supplemented with 50 nM [^3H]CQ and one of 7 different CQ concentrations (10 µM, 50 µM, 100 µM, 200 µM, 300 µM, 400 µM, 500 µM CQ). The reaction was stopped at the 60 min time point, which is in the linear uptake range[22],[34] (Supplementary Fig. 17). For determination of the amount of drug uptake for each oocyte, the reaction medium was removed and the oocytes were washed three times with 2 ml of ice-cold ND96 buffer. Each oocyte was individually transferred to a scintillation vial containing 5% sodium dodecyl sulfate (200 μl) for lysis. The radioactivity of each sample was measured using a liquid scintillation analyzer Tri-Carb 4910 TR (PerkinElmer). Oocytes that were injected with water instead of RNA were analyzed in parallel, representing the uptake of a drug by diffusion and/or endogenous permeation pathways. The resulting value represents the “background“ level of drug accumulation in oocytes (in-depth discussion in[22]). […]

Test [2] has as its target T1, PfCRT variant H123A (Plasmodium falciparum, UniProt Q9N623, A220S/H123A/I356T/K76T/M74I/N326S/N75E/Q271E/R371I).
T1 sequence (Q9N623 1-424 M74I/N75E/K76T/H123A/A220S/Q271E/N326S/I356T/R371I): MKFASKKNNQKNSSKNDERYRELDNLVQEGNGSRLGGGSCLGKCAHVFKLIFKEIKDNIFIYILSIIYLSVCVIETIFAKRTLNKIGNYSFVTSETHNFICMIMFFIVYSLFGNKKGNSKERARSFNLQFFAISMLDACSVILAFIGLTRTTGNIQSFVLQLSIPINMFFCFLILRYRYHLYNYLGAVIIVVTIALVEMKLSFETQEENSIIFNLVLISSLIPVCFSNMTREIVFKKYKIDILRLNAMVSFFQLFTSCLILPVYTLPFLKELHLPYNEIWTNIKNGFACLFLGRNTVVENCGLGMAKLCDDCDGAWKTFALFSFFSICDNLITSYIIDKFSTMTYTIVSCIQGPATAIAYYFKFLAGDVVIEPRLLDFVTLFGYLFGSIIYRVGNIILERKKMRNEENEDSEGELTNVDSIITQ
The experiment in a line: CQ uptake assay, oocytes expressing H123A. The format is cell-based. On the procedure: as §1, §2
Drug uptake assays were performed as described previously[21],[22],[24],[34]. […] The direction of radio-labeled drug transport is here from the mostly acidic extracellular solution (pH 4.5 or 6.0, as indicated) into the oocyte cytosol (pH ∼ 7.2), which corresponds to the efflux of drug from the acidic digestive vacuole (pH 5.2) into the parasite cytoplasm (pH 7.2). The topology of PfCRT in the oolemma is such that both the N- and C-terminus face the extracellular milieu[3],[22]. In the parasite, the N- and C-terminus face the lumen of the digestive vacuole. […] For determination of the amount of drug uptake for each oocyte, the reaction medium was removed and the oocytes were washed three times with 2 ml of ice-cold ND96 buffer. Each oocyte was individually transferred to a scintillation vial containing 5% sodium dodecyl sulfate (200 μl) for lysis. […] Oocytes that were injected with water instead of RNA were analyzed in parallel, representing the uptake of a drug by diffusion and/or endogenous permeation pathways. […] The specific PfCRT-mediated uptake was determined by subtracting the corresponding background value measured in water-injected oocytes from that of PfCRT-expressing oocytes. […]

[3] abbreviates: D313A, 50 µM CQ, 1 h, mean ± SEM.
The mark [4] stands for this setting: pH 4.5, single replicates, Fig 1d left.
Setting [5] is: pH 6.0, single replicates, Fig 1d left.

Where “and” joins values, the source holds several entries; their conditions need not be identical. Equal entries are not always repeated.

These results are taken from paper PMC10349806 (Nature Communications, 2023).

For `CCN(CC)CCCC(C)Nc1ccnc2cc(Cl)ccc12` (centres unmarked) [CQ, chloroquine], the “Activity at pH 4.5” value in test [1] (setting [3]) was determined as 1.49 ± 0.21 pmol h-1 oocyte-1. In addition, the “Activity at pH 6.0” value was found to be 4.55 ± 0.45 pmol h-1 oocyte-1 in test [1] (setting [3]) and 4.85 ± 0.43 pmol h-1 oocyte-1 in test [2] (H123A, 50 µM CQ, 1 h, mean ± SEM). Besides, the R-value was determined as 0.33 ± 0.04 in test [1] (D313A, CQ transport at pH 4.5 / pH 6.0) and 0.36 ± 0.09 in test [2] (H123A, CQ transport at pH 4.5 / pH 6.0). Further, the “D313A transport activity pH 4.5” value in test [1] (setting [4]) is 2.00 pmol oocyte-1 h-1 and 1.13 pmol oocyte-1 h-1 and 1.34 pmol oocyte-1 h-1. In test [1] (pH 4.5 vs pH 6.0, Fig 1d left), the “D313A R-value” is 0.38 and 0.23 and 0.39. In test [1] (setting [5]), the “D313A transport activity pH 6.0” value is 5.27 pmol oocyte-1 h-1 and 4.91 pmol oocyte-1 h-1 and 3.47 pmol oocyte-1 h-1. Also, in test [2] (setting [4]), the “H123A transport activity pH 4.5” value is 1.12 pmol oocyte-1 h-1 and 2.16 pmol oocyte-1 h-1 and 1.35 pmol oocyte-1 h-1 and 2.48 pmol oocyte-1 h-1. Moreover, the “H123A R-value” in test [2] (pH 4.5 vs pH 6.0, Fig 1d left) is 0.44 and 0.35 and 0.42 and 0.27 and 0.52. In addition, in test [2] (setting [5]), the “H123A transport activity pH 6.0” value is 6.18 pmol oocyte-1 h-1 and 3.21 pmol oocyte-1 h-1 and 5.14 pmol oocyte-1 h-1 and 4.96 pmol oocyte-1 h-1 and 4.77 pmol oocyte-1 h-1.
